Data published in patent US11986478B2 (priority 2021, dated 2024).
Read-outs that look alike come from different tables or passages of the source.

What was measured:
[1] = target: T1, SARS-CoV-2 PLpro (Severe acute respiratory syndrome coronavirus 2, UniProt P0DTD1); assay: biochemical; type: biochemical
[2] = tested on: SARS-CoV-2; assay: microbe, parasite or virus in culture; type: cell-based; conditions: Severe acute respiratory syndrome coronavirus 2, read-out: EC50 anti-SARS-CoV-2 activity
[3] = tested on: SARS-CoV-2; type: cell-based
[4] = tested on: MERS-CoV; type: cell-based
[5] = tested on: SARS-CoV-2; type: cell-based; remark: listed apart in the source
[6] = tested on: MERS-CoV; type: cell-based; remark: listed apart in the source
[7] = tested on: hCoV-229E; type: cell-based
[8] = tested on: hCoV-OC43; type: cell-based
[9] = target: T1, SARS-CoV-2 PLpro; type: biochemical
[10] = target: T2, MERS-CoV PLpro (Middle East respiratory syndrome-related coronavirus, UniProt K9N7C7); type: biochemical
T2 sequence (K9N7C7 1552-1823 limits assumed): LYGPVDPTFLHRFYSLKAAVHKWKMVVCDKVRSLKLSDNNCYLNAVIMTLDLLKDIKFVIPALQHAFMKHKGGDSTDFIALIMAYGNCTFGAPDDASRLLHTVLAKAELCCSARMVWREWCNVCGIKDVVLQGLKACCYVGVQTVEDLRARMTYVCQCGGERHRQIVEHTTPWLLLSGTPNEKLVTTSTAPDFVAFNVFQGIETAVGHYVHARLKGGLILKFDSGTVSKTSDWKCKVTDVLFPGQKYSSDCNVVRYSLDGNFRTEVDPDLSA

[11] = tested on: human DUBs; type: biochemical
[12] = target: T1, SARS-CoV-2 PLpro; type: biochemical; remark: listed apart in the source
[13] = tested on: cellular proteases (serine, cysteine and acid proteases) in Huh-7, Caco-2 and A549 lysates; type: biochemical, human
[14] = target: T1, SARS-CoV-2 PLpro; type: cell-based
[15] = target: T2, MERS-CoV PLpro; type: cell-based
[16] = tested on: SARS-CoV-2-infected Caco-2 cells; type: cell-based, human
[17] = tested on: MERS-CoV-infected Huh-7 cells; type: cell-based, human
[18] = tested on: Caco-2 and Huh-7 cells; type: cell-based, human
[19] = tested on: SARS-CoV-2; parameters: species or system golden Syrian hamster; conditions: hamster, in vivo
[20] = tested on: MERS-CoV; type: cell-based; remark: listed apart in the source
[21] = tested on: Huh7, VeroE6/TMPRSS2, Calu-3, Caco-2, BSC1 cells and human embryonic lung fibroblasts (HELF)
[22] = target: T2, MERS-CoV PLpro; type: biochemical; remark: listed apart in the source
[23] = read-out: IC50 against SARS-CoV-2-PLpro

For `O=C(Nc1ccccc1Cl)c1sc(=S)n2c1[nH]c(=O)c1ccccc12` [Compound F0213], the IC50 [1, 23] was 7.4 µM, the EC50 [2] was 4.5 µM and the “inhibition of virus replication by NP antigen immunofluorescence” value (from here on “inhibition of virus replication”) [3] was “significant inhibition of virus replication”. The “inhibition of virus replication” value [4] was “significant inhibition of virus replication”, the “reduction of SARS-CoV-2 viral yields” value [5] was “more than 1 log 10” and the “decrease of viral yields” value [6] was “about 3 log 10”. The “decrease of viral yields” value [7] was “about 2 log 10”, the “decrease of viral yields” value [8] was “around 1.5 log 10” and the “cleavage of ISG15-AMC and Ubiquitin-AMC” value [9] was “inhibited cleavage”. For the same compound, the “cleavage of ISG15-AMC and Ubiquitin-AMC” value [10] was “inhibited cleavage”, the “modification of cellular DUBs by HA-Ub-VS” value [11] was “no change was noted in the immunoblot pattern” and the “modification of PLpro by HA-Ub-VS” value [12] was “eliminated in the presence of GRL0617 but not F0213”. The cellular protease activity [13] was “not affected”, the “rescue of IFN-β, IRF3 and NF-κB reporter gene expression” value [14] was “rescued the genes expression in a dose-dependent manner” and the “rescue of IFN-β, IRF3 and NF-κB reporter gene expression” value [15] was “rescued the genes expression in a dose-dependent manner”. The “expression of IFN-responsive genes ISG15 and PKR” value [16] was “significantly enhanced”, the “transcription levels of ISG15 and PKR” value [17] was “reduced” and the cellular antiviral signaling [18] was “potentiated the cellular antiviral signaling”. For the same compound, the “SARS-CoV-2 N expression in lung by immunofluorescence” value [19] was “reduced N expression”, the “SARS-CoV-2 genome copies in the lungs” value [19] was “suppression” and the “lung damage by H & E staining” value [19] was “improved morphology and milder infiltrations”. The “decrease of virus plaque-forming units in lung tissues” value ([19]; 5 mg/kg/day) was 1-2 log 10, the “efficacy by route on lung genome copies” value ([19]; 5 mg/kg/day) was “superior efficacy via PO route than that of IP injection” and the “antiviral EC50 against MERS-CoV compared with SARS-CoV-2” value [20] was “lower antiviral EC50 against MERS-CoV than SARS-CoV-2”. For the same compound, the “cytotoxicity in the matching cell lines” value [21] was “negligible cytotoxicity”.

`COc1cc2c(=O)[nH]c3c(C(=O)Nc4cc(Cl)ccc4C)sc(=S)n3c2cc1OC` [Compound F0326] gave an IC50 [1] of 8.2 µM and an EC50 [2] of 7.6 µM.

For `Cc1cccc(NC(=O)c2sc(=S)n3c2[nH]c(=O)c2cc4c(cc23)OCO4)c1` [Compound F0393], the IC50 [1, 23] was 15.8 µM.

With `CCN1C(=O)C=CC1=O` [NEM, N-ethyl-maleimide, reference compound] the “modification of cellular DUBs by HA-Ub-VS” value [11] was “diminished the modification of HA-Ub-VS on DUBs”.

For GRL0617 [reference compound], the “effect on MERS-CoV-PLpro activity” value [22] was “without impairing the MERS-CoV-PLpro activity”, the “inhibition of virus replication” value [3] was “marginal virus suppression” and the “inhibition of virus replication” value [4] was “marginal virus suppression”. The “modification of PLpro by HA-Ub-VS” value [12] was “almost completely eliminated”.
